Experimental data: US6455593B1, “Method of dynamic retardation of cell cycle kinetics to potentiate cell damage” (priority 1995, dated 2002)
Where two headings read alike, the source gives them in different places.

What was measured:
p. falciparum W2 = experiment: Parasite growth by 3H-hypoxanthine uptake in infected erythrocytes; type: cell-based; settings: Plasmodium falciparum, W2, Erythrocyte, read-out: inhibitory concentrations (IC50), strain W2
Daudi cells = experiment: MIS MTT growth inhibition assay; type: cell-based, human
Description: (§1) A dye, 3-[4,5-dimethylthiazol-2-yl]-2,5-diphenyl-tetrazolium bromide (MTT), was used as a chromogenic indicator of the metabolically active cell mass. Viable cells metabolize the dye and accumulate a reduced formazan product (blue color) which is solubilized for colorimetry. Mossman T, J. Immunol. Methods 5:55-63 (1983); Li L and Lau B H S, In Vitro Cell Dev. Biol. 29A:531-536 (1993). The MTT assay has been established as useful for measuring either growth inhibition or population killing. Plowman, supra. The MTT method is ideal for cells tested in suspension growth, and can also be used for some cells growing in monolayers. […] Alley, supra; Hofs, supra; Wilson J K et al., Br. J. Cancer 62:189-94 (1990); Plowman, supra.
(§2) Thirty μl of 0.5% MTT in phosphate buffered saline was added to each microculture well at the appropriate time. After incubation at 37° C. for 3 hr, 120 μl of an aqueous solution of 10 % SDS with 0.01 N HCl was added to release and dissolve formazan product. This was accomplished by overnight incubation of the plate at 37° C. After careful mixing of the microwell contents by placing the plates on an orbital shaker for 5 minutes the absorbencies were quantitated by spectrophotometry at 570 nm with a Ceres UV 900 HDI microwell plate reader (from Biotek Instruments Inc, Winooski, Vt. 05404-0998). Absorbance data was normalized to a blank well containing all reagents without cells and was collected semi-automatically.
(§3) Flat-bottom 96-well plates of tissue culture quality (Corning or Costar) were set up with two-fold serial dilutions of each agent to be tested, e.g., the RA and TCI, using a multichannel pipettor with adjustable volume, e.g., Costar or Rainin, to perform serial mixing. This set-up is diagrammed in FIG. 12. […] In each plate, a total of 59 wells then contained bivariate agent combinations, the bivariate serial dilutions.

U937 cells [1] = experiment: Flow cytometric cell cycle analysis (propidium iodide); type: cell-based, human; settings: U937
Procedure: Flow cytometric analyses were performed with a Coulter Epics System (purchased from Coulter Corp, Hialeah, Fla.). Cells were disrupted in buffer with 0.1% Triton-X 100 (or 0.6 % NP-40), so that the nuclei could be stained with 0.05% propidium iodide (PI). See Shapiro N M, Practical Flow Cytometry, Man R Liss, NY (1988); Nicoletti I et al., J Immunol Methods 139:271-9 (1991). Analyses of 10,000 nuclei were performed with graduated concentrations of dThd at serial time points. Histograms of PI fluorescent emissions at 675±10 nm were used to discriminate cell cycle fractions of the target population. The proportion of cells in each phase of the cell cycle is represented by stack bars above the X-axis as a fraction of those cells with intact DNA structure. The fraction of cells with depleted DNA in each sample is represented below the X-axis as a percentage of the total cell number. Cells with depleted DNA are presumed apoptotic. Crompton S T et. al. Biophys. Biochem. Res. Comm. 183:532-537 (1992). Each stack bar in FIG. 5 represents the cell cycle distribution of a population sample of >10,000 cells, analyzed for each indicated dThd concentration at indicated treatment times.
Flow cytometric analyses were performed as in Example 2. The results are shown in plot A of FIG. 5 from Example 2.
The U937 cells were exposed to a range of concentrations below the IC40 and sampled for flow cytometry at intervals of 8, 16, and 24 hours. Flow cytometric analysis was performed as described in Example 2.

[2] = tested on: human malignant lymphoma cells (U937); experiment: Tumorigenic assay in athymic nude mice; type: in vivo; settings: U937 cells treated with dThd 0.2 mM for 4 hr followed by STSP 25 nM for 7 hr before subcutaneous inoculation; 14 days
Description: The biologic behavior of xenografts of human malignant cells in immunosuppressed mice can approximate natural growth conditions in a patient, since the cells receive a local supply of plasma nutrients and can survive for several weeks. Thus, inoculated cells may survive in a latent state prior to growth, a condition not readily duplicated in vitro. Inoculum size is critical for observation of tumor growth within a practical time frame. […] After treatment, cells were sedimented and resuspended in serum-free RPMI 1640. In each group four athymic Nu/Nu weanling mice of mean weight 17 gm were inoculated subcutaneously into both subscapular regions with 0.1 ml of RPMI 1640 containing 10^7 cells (viability>90%). Formation of tumors in these subcutaneous sites was observed during the next 14 days. One control mouse died prematurely. At 14 days, all animals were sacrificed, tumors were photographed, tumors were carefully dissected, and tumor weights were recorded. Tumors were verified histologically.

U937 cells [3] = experiment: Pilot test of enhancement of gamma radiation damage; type: cell-based, human; settings: STSP as RA, approximately 25 nM, pilot data
Description: Serial two-fold changes in calibrated radioactive dosages are combined with two-fold serial dilutions of an agent being tested as an RA or a TCI.

pRb = experiment: Immunoblot of pRb phosphorylation status; type: cell-based, human
Procedure: Whole cell extracts (U937 cells) were prepared in an SDS 2×sample buffer (100 mM Tris.HCl (pH 6.8), 200 mM DTT and 4% sodium dodecyl sulfate) and boiled for 5 minutes. Protein concentrations were assayed, and samples of 100 μg of protein per lane were applied to 7.5% SDS-polyacrylamide gels (PAGE). Resolved proteins were transferred to Immobilon P (Millipore), and pRb was localized with monoclonal anti-pRb (Santa Cruz, IF8) and a chemiluminescence procedure (Amersham ECL). Samples for flow cytometry were prepared and flow cytometry was performed as described in Example 2.

[4] = tested on: Burkitt's lymphoma cell line Raji; experiment: MIS MTT growth inhibition assay; type: cell-based, human; settings: Raji cells (Tk deficient)
HL-60 cells = experiment: MIS MTT growth inhibition assay; type: cell-based, human
Description: as §1, §2, §3

[5] = Homo sapiens, 4 h, read-out: MTT % inhibition, Aph only
[6] = Homo sapiens, HL-60, 2 h, dThd […] 2 H, STSP 0, read-out: MTT % inhibition, dThd only

C[C@@]1(CO)[C@H](O)CC[C@@]2(C)[C@H]1CC[C@H]1C[C@@H]3C[C@@]12CC[C@]3(O)CO [Aph, aphidicolin]
IC50 (p. falciparum W2; 24 hr after RBC infection, 3H-hypoxanthine uptake): 0.123 µM | combined results ratio, Aph only (baseline line) (Daudi cells; Aph alone, every Aph concentration 8.00-0.02 ug/ml): 1.0 | inhibition at 0.02 µg/mL (Daudi cells; [5]): 0% | inhibition at 0.03 µg/mL (Daudi cells; [5]): 1% | inhibition at 0.06 µg/mL (Daudi cells; [5]): 4% | inhibition at 0.5 µg/mL (Daudi cells; [5]): 8% | inhibition at 1 µg/mL (Daudi cells; [5]): 8% | inhibition at 2 µg/mL (Daudi cells; [5]): 9% | inhibition at 4 µg/mL (Daudi cells; [5]): 16% | inhibition at 8 µg/mL (Daudi cells; [5]): 28%

CN[C@@H]1C[C@H]2O[C@@](C)([C@@H]1OC)n1c3ccccc3c3c4c(c5c6ccccc6n2c5c31)C(=O)NC4 [STSP, staurosporine]
Effect on cell cycle distribution (U937 cells [1]; 50 nM STSP, from 4 hours, shown at 8 hr and 24 hours): gradually accumulated in the G2 and M phases | Tumor formation [2]: developed no tumors | IC50 (p. falciparum W2): 0.15 µM | Effect on gamma radiation damage (U937 cells [3]): an enhancing effect upon damage produced by a single exposure of the U937 cells to 2.5 to 10 Gy of gamma radiation

Cc1cn([C@H]2C[C@H](O)[C@@H](CO)O2)c(=O)[nH]c1=O [dThd, deoxythymidine]
Effect on cell cycle progression (U937 cells [1]; 0.2 mM dThd): permitted continuous cell transit | Effect on cell cycle progression (U937 cells [1]; 3 mM dThd): arrested cell cycle progression at G1/S | pRb phosphorylation (pRb; 0.2 mM dThd): did not appear to be grossly inhibited | pRb phosphorylation (pRb; 3 mM dThd, 4 or 11 hours): pRb phosphorylation was inhibited | IC40, growth inhibition [4]: > 4000 µM | inhibition at 10 µM (HL-60 cells; Homo sapiens, HL-60, 2 h, dThd 0.01 mM 2 H, STSP 0, read-out: MTT % inhibition, dThd only): 2% | inhibition at 10 µM (HL-60 cells; Homo sapiens, HL-60, 2 h, dThd 0.01 mM (column 8, lowest) 2 H, STSP 0, read-out: MTT % inhibition, dThd only): 5% | inhibition at 20 µM (HL-60 cells; Homo sapiens, HL-60, 2 h, dThd 0.02 mM 2 H, STSP 0, read-out: MTT % inhibition, dThd only): 7% | inhibition at 50 µM (HL-60 cells; Homo sapiens, HL-60, 2 h, dThd 0.05 mM 2 H, STSP 0, read-out: MTT % inhibition, dThd only): 10% | inhibition at 90 µM (HL-60 cells; Homo sapiens, HL-60, 2 h, dThd 0.09 mM 2 H, STSP 0, read-out: MTT % inhibition, dThd only): 13% | inhibition at 3000 µM (HL-60 cells; Homo sapiens, HL-60, 2 h, dThd 3.00 mM 2 H, STSP 0, read-out: MTT % inhibition, dThd only): 59% | inhibition at 190 µM (HL-60 cells; [6]): 20% | inhibition at 380 µM (HL-60 cells; [6]): 28% | inhibition at 750 µM (HL-60 cells; [6]): 40% | inhibition at 1500 µM (HL-60 cells; [6]): 49% | combined results ratio, dThd only (baseline line) (HL-60 cells; dThd alone, dThd 3.00-0.09 mM): 1.0
